SMILES strings stand for the structures.

For 29 molecules, IC50 results are on record in patent US11866431B2, “Bicyclic compounds” (Vivace Therapeutics, Inc., priority 2018, dated 2024).

The subject of one assay is 8XTBD luciferase reporter (YAP reporter) in HEK293T cells. As to the kind of experiment: YAP Reporter Assay. The settings on record: Homo sapiens, HEK-293T, 24 h, read-out: Firefly Luciferase IC50 (μM). Type of assay: cell-based. The protocol:
HEK293T cells stably transfected with 8XTBD luciferase reporter and pRLTK in 384-well plates were treated with the test compounds, starting from 3 μM (final concentration in assay plate), 1:3 dilution, and 10 points in quadruplicates. Post 24-hr incubation with compounds at 37° C. and 5% CO2, cells were lysed and 8XTBD-driven firefly luciferase and control TK-driven renilla luciferase activities were measured using Promega Dual-Luciferase Reporter Assay System.
Reagents: The reagents used for this study are: DMEM: Invitrogen #11960077, Dual-Glo Luciferase Assay System: Promega-E2980, Puromycin Dihydrochloride: Invitrogen-A1113803, 384-well plate: PerkinElmer-6007480, L-GLUTAMINE: Invitrogen-25030164, Hygromycin B: Invitrogen-10687010, and Penicillin-Streptomycin: Merk-TMS-AB2-C
Media: The media used for this assay were: Culture Medium: DMEM+1 ug/mL puromycin+200 ug/mL hygromycin (with 10% FBS+1 mM L-glutamine); and Assay Medium: DMEM (with 10% FBS+1 mM L-glutamine+1×P/S).
Cell Plating: The appropriate media was warmed at 37° C. by water bath: Culture Medium, Assay Medium, 1*D-PBS, 0.05% trypsin-EDTA. The cells were trypsinized after removing all media, then washed with 1*sterile D-PBS and then with 2 ml 0.05% trypsin-EDTA. The cells were then incubated at RT for one minute. Then 10 ml/75 cm2 flask Assay Medium was added to each flask. Using a 10 ml pipette, the cells were then gently resuspended in the media, until the clumps completely disappeared. The cells were then transferred into 50 ml centrifuge tubes and were centrifuged at 800 rpm for 5 mins. The medium was removed and the cells were resuspended with Assay Medium. An aliquot of cells was used to count the cell density (cells/ml). The cell suspension was then diluted with Assay Medium to a concentration of 6×10^4 cells/ml. 50 ul cells suspension was then plated to 384-well plate (PerkinElmer-6007480), 3×10^3 cells/well and the cells were incubated in an incubator at 37° C. 5% CO2.
Compound Treatment: In the afternoon (incubation of the plate with 3-4 hrs), the test compounds were added by Echo, starting from 3 uM (final concentration in the assay plate), 1:3 dilution, 10 points, quadruplicates. The plate was placed at 37° C. 5% CO2 incubator for 24 hrs.
Detection: The Dual-Glo Luciferase Reagent was prepared by transferring the contents of one bottle of Dual-Glo Luciferase Buffer to one bottle of Dual-Glo Luciferase Substrate to create the Dual-Glo Luciferase Reagent. Mixing was performed by inversion until the substrate was thoroughly dissolved. After mixing, the reagent was aliquoted into 15 ml tubes. In the afternoon (24 hrs post compound treatment), the DMEM+ medium in the 384 well plates were aspirated by Microplate Washer.
Measuring firefly luciferase activity: 20 ul Dual-Glo Luciferase Reagent was added to the 384-well plates. The plates were protected from light to prevent interference with the assay. The plates were shaken for 1 min followed centrifuging plates at 1000 rpm for 30 seconds. After waiting at least 10 minutes, the firefly luminescence was measured by Envision.
Measuring renilla luciferase activity: 20 ul Stop-Glo Reagent was added to the 384-well plates. The plates were shaken for 1 min and then centrifuged at 1000 rpm for 30 seconds. After waiting at least 10 minutes, the renilla luminescence was measured by Envision.
Compound IC50 and maximum inhibition on the firefly luciferase and renilla luciferase activities were reported separately.
Regarding `O=C(NCC(F)(F)F)c1ccc2c(-c3ccc(C(F)(F)F)cc3)cccc2c1` [Compound 54, N-(2,2,2-trifluoroethyl)-5-(4-(trifluoromethyl)phenyl)-2-naphthamide], the IC50 is below 0.1 µM.

For the molecule `CC(C)NC(=O)c1ccc2c(-c3ccc(C(F)(F)F)cc3)cc3sc(N)nc3c2c1` [Compound 63, 2-amino-N-isopropyl-5-(4-(trifluoromethyl)phenyl)naphtho[1,2-d]thiazole-8-carboxamide], the IC50 was below 0.1 µM.

Still in this assay, the particulars now being: Homo sapiens, HEK-293T; HEK293T cells stably transfected with 8XTBD luciferase reporter and pRLTK; 24-hr incubation; top concentration 3 μM; read-out: Firefly Luciferase IC50.
Regarding `CC(C)NC(=O)c1ccc2c(-c3ccc(C(F)(F)F)cc3)cn3ccnc3c2c1` [Compound 299, N-Isopropyl-6-(4-(trifluoromethyl)phenyl)imidazo[2,1-a]isoquinoline-9-carboxamide], the IC50 lay within 0.1 to 1 µM.

As to `COc1cc(CNC(=O)c2ccc3c(-c4ccc(C(F)(F)F)cc4)cccc3c2)ccn1` [Compound 210, N-((2-methoxypyridin-4-yl)methyl)-5-(4-(trifluoromethyl)phenyl)-2-naphthamide], the IC50 was 0.1 to 1 µM.

In the case of `CC(C)NC(=O)c1ccc2c(-c3ccc(C(F)(F)F)cc3)cn(C)c(=O)c2c1` [Compound 26, N-isopropyl-2-methyl-1-oxo-4-(4-(trifluoromethyl)phenyl)-1,2-dihydroisoquinoline-7-carboxamide], the half-inhibitory concentration (IC50) is below 0.1 µM.

For `C[C@H](NC(=O)c1ccc2c(-c3ccc(C(F)(F)F)cc3)cccc2c1)C(N)=O` [Compound 259, (S)—N-(1-amino-1-oxopropan-2-yl)-5-(4-(trifluoromethyl)phenyl)-2-naphthamide], the IC50 is 0.1 to 1 µM.

For `O=C(N[C@H](CO)c1ccccn1)c1ccc2c(-c3ccc(C(F)(F)F)cc3)cccc2c1` [Compound 162, N-[(1S)-2-hydroxy-1-(2-pyridyl)ethyl]-5-[4-(trifluoromethyl)phenyl]naphthalene-2-carboxamide], the IC50 fell in the range of 1 to 3 µM.

Regarding `O=C(O)c1ccc2c(-c3ccc(C(F)(F)F)nc3)cccc2c1` [Compound 331, 5-(6-(trifluoromethyl)pyridin-3-yl)-2-naphthoic Acid], the IC50 lay within 0.1 to 1 µM.

As for `CC(C)NC(=O)c1ccc2c(-c3ccc(C(F)(F)F)cc3)ccc(Cl)c2c1` [Compound 13, 8-chloro-N-isopropyl-5-(4-(trifluoromethyl)phenyl)-2-naphthamide], the half-maximal inhibitory concentration (IC50) is below 0.1 µM.

Consider `O=C(N[C@H](CO)C1CNC1)c1ccc2c(-c3ccc(C(F)(F)F)cc3)cccc2c1` [Compound 130, N-[(1S)-1-(azetidin-3-yl)-2-hydroxy-ethyl]-5-[4-(trifluoromethyl)phenyl]naphthalene-2-carboxamide], for which the IC50 lay within 1 to 3 µM.

As to `C[C@H](NC(=O)c1ccc2c(-c3ccc(C(F)(F)F)cc3)cccc2c1)c1nnn(C)n1` [Compound 278, (S)—N-(1-(2-methyl-2H-tetrazol-5-yl)ethyl)-5-(4-(trifluoromethyl)phenyl)-2-naphthamide], the IC50 is 0.1 to 1 µM.

For the molecule `C[C@@H](NC(=O)c1ccc2c(-c3ccc(C(F)(F)F)cc3)cccc2c1)C1CN(CCO)C1` [Compound 133, (R)—N-(1-(1-(2-hydroxyethyl)azetidin-3-yl)ethyl)-5-(4-(trifluoromethyl)phenyl)-2-naphthamide], the concentration for half-maximal inhibition (IC50) lay in the range of 0.1 to 1 µM.

For `C[C@@H](CN)NC(=O)c1ccc2c(-c3ccc(C(F)(F)F)cc3)cccc2c1` [Compound 59, (S)—N-(1-aminopropan-2-yl)-5-(4-(trifluoromethyl)phenyl)-2-naphthamide], the IC50 lay in the range of 0.1 to 1 µM.

For the molecule `COCCOCCNC(=O)c1ccc2c(-c3ccc(C(F)(F)F)cc3)cccc2c1` [Compound 57, N-(2-(2-methoxyethoxy)ethyl)-5-(4-(trifluoromethyl)phenyl)-2-naphthamide], the IC50 was 0.1 to 1 µM.

Consider `Cc1nsc(CNC(=O)c2ccc3c(-c4ccc(C(F)(F)F)cc4)cccc3c2)n1` [Compound 221, N-((3-methyl-1,2,4-thiadiazol-5-yl)methyl)-5-(4-(trifluoromethyl)phenyl)-2-naphthamide], for which the IC50 was below 0.1 µM.

In the case of `N#C/C=C\CCNC(=O)c1ccc2c(-c3ccc(C(F)(F)F)cc3)cccc2c1` [Compound 216, N—[(Z)-4-cyanobut-3-enyl]-5-[4-(trifluoromethyl)phenyl]naphthalene-2-carboxamide], the IC50 fell in the range of 0.1 to 1 µM.

For the molecule `C[C@@H](NC(=O)c1ccc2c(-c3ccc(C(F)(F)F)cc3)cccc2c1)c1ccccn1` [Compound 91, (R)—N-(1-(pyridin-2-yl)ethyl)-5-(4-(trifluoromethyl)phenyl)-2-naphthamide], the half-inhibitory concentration (IC50) was in the range of 0.1 to 1 µM.

For the molecule `CC(C)NC(=O)c1ccc2c(-c3ccc(C(F)(F)F)cc3)cccc2c1` [Compound 1, N-isopropyl-5-(4-(trifluoromethyl)phenyl)-2-naphthamide], the concentration for half-maximal inhibition (IC50) was below 0.1 µM.

In the case of `CN(C#N)CCNC(=O)c1ccc2c(-c3ccc(C(F)(F)F)cc3)cccc2c1` [Compound 125, N-(2-(N-methylcyanamido)ethyl)-5-(4-(trifluoromethyl)phenyl)-2-naphthamide], the IC50 is below 0.1 µM.

With `CC(C)NC(=O)c1ccc2c(-c3ccc(C(F)(F)F)cc3)cccc2n1` [Compound 248, N-isopropyl-5-(4-(trifluoromethyl)phenyl)quinoline-2-carboxamide], the IC50 lay within 0.1 to 1 µM.

In the case of `O=C(NCc1ccccc1)c1ccc2c(-c3ccc(C(F)(F)F)cc3)cccc2c1` [Compound 241, N-benzyl-5-(4-(trifluoromethyl)phenyl)-2-naphthamide], the IC50 is below 0.1 µM.

For `C[C@H](CCN)NC(=O)c1ccc2c(-c3ccc(C(F)(F)F)cc3)cccc2c1` [Compound 169, (R)—N-(4-aminobutan-2-yl)-5-(4-(trifluoromethyl)phenyl)-2-naphthamide], the IC50 lay within 0.1 to 1 µM.

Turning to `O=C(NCCSSCCNC(=O)c1ccc2c(-c3ccc(C(F)(F)F)cc3)cccc2c1)c1ccc2c(-c3ccc(C(F)(F)F)cc3)cccc2c1` [Compound 115, N,N′-(disulfanediylbis(ethane-2,1-diyl))bis(5-(4-(trifluoromethyl)phenyl)-2-naphthamide)], the IC50 lay within 1 to 3 µM.

For `C[C@@H](NC(=O)c1ccc2c(-c3ccc(C(F)(F)F)cc3)cccc2c1)c1cccnc1N` [Compound 218, (R)—N-[1-(2-amino-3-pyridyl)ethyl]-5-[4-(trifluoromethyl)phenyl]naphthalene-2-carboxamide], the IC50 was below 0.1 µM.

`C[C@H](CO)NC(=O)c1ccc2c(-c3ccc(C(F)(F)F)cc3)cccc2n1` [Compound 247, (R)—N-(1-Hydroxypropan-2-yl)-5-(4-(trifluoromethyl)phenyl)quinoline-2-carboxamide]: the IC50 was 0.1 to 1 µM.

As for `CCN1CC([C@@H](C)NC(=O)c2ccc3c(-c4ccc(C(F)(F)F)cc4)cccc3c2)C1` [Compound 148, N-[(1R)-1-(1-Ethylazetidin-3-yl)ethyl]-5-[4-(trifluoromethyl)phenyl]naphthalene-2-carboxamide], the IC50 was 0.1 to 1 µM.

On to `CC(C)NC(=O)c1ccc2c(-c3ccc(C(F)(F)F)cc3)ccc(N(C)S(C)(=O)=O)c2c1` [Compound 34, N-isopropyl-8-(N-methylmethylsulfonamido)-5-(4-(trifluoromethyl)phenyl)-2-naphthamide], for which the IC50 was in the range of 1 to 3 µM.

Take `O=C(NCc1ccnc(Cl)n1)c1ccc2c(-c3ccc(C(F)(F)F)cc3)cccc2c1` [Compound 180, N-((2-chloropyrimidin-4-yl)methyl)-5-(4-(trifluoromethyl)phenyl)-2-naphthamide]: the 50% inhibitory concentration (IC50) lay within 0.1 to 1 µM.

Take `CS(=O)(=O)/C=C/CCNC(=O)c1ccc2c(-c3ccc(C(F)(F)F)cc3)cccc2c1` [Compound 311, (E)-N-(4-(Methylsulfonyl)but-3-en-1-yl)-5-(4-(trifluoromethyl)phenyl)-2-naphthamide]: the IC50 was below 0.1 µM.
